Reference: a melting point compilation (Tetko et al.; mined from patent text by program, amines drawn as free bases though some values may be those of a salt)

melting point | Structure (SMILES)
261 °C | O=C(O)c1c(Cc2cc3c(cc2Cl)OCO3)c(-c2ccccn2)nn1CC1CCC(C(=O)O)CC1 (configuration not stated)
73 to 76 °C | CCn1c(COC(=O)OCc2nc(C(C)C)c(Sc3cc(Cl)cc(Cl)c3)n2CC)nc(C(C)C)c1Sc1cc(Cl)cc(Cl)c1
128 °C | COc1cc(OCc2oc(=O)oc2C)c(C(=O)CCc2ccc3occc3c2)cc1C1OC(CO)C(O)C(O)C1O (configuration not stated)
189 °C | CC(=O)OCC(=O)C1C(C)CC2C3CC(Cl)C4=CC(=O)C=CC4(C)C34OC4CC21C (configuration not stated)
220 °C | NS(=O)(=O)c1cccc(-c2cn(-c3nc(-c4ccc(C(F)(F)F)nc4)cc(C(F)F)n3)cn2)c1
169 to 171 °C | Cc1cnc2c(NC(=O)c3c(Cl)cccc3Cl)cccc2c1OCC=Cc1ccccc1
204 °C | O=C(O)C1COc2ccc(O)cc2O1 (configuration not stated)
217 to 219 °C | Cc1ccc(NC(=O)C=Cc2ccccc2)cc1NC(=O)C=Cc1ccccc1
175 to 177 °C | Cc1cccnc1Cn1nnc2ccccc21
134 to 137 °C | CC(C)(C)c1cc(SC2CC(=O)N(c3ccccc3)C2=O)cc(C(C)(C)C)c1O (configuration not stated)
198 to 200 °C | COc1ccc2[nH]c(-c3ccccc3N)cc2c1
184 to 186 °C | COc1ccc(C(=O)Nc2ccccc2)cc1NCc1ccc(C)cc1
196 to 197 °C | O=C(Nc1ccc(Oc2ccnc(N3CCC3)n2)c2ccccc12)c1cc(F)cc(N2CCOCC2)c1
199 to 202 °C | N#CSc1nc(I)ncc1Br
> 200 °C | Cc1nc(N2CCN(Cc3cc(F)cc(F)c3)C2=O)sc1C(N)=O
142 to 146 °C | COc1ccc(-c2cc(=S)n(Cc3cc(OC)c(OC)c(OC)c3)nc2-c2ccc(OC)cc2)cc1
71 to 72 °C | CCC1(CC)CC(=O)c2cc(C#N)ccc2O1
143 to 145 °C | COc1ccc(N2N=C3c4ccccc4SCCC3CC2=O)cc1 (configuration not stated)
76 °C | O=C(OCC(Cl)(Cl)Cl)N1CCCC(C(=O)OCc2ccccc2)(C(=O)OCc2ccccc2)C1
151 to 154 °C | CCn1c2ccc(C(=O)c3ccc(-n4c5ccccc5c5ccccc54)cc3)cc2c2cc(C(C)=NO)ccc21
103 to 105 °C | CCOC(=O)c1cc(=O)c(Cl)c(-c2ccccc2)o1
203 to 204 °C | COC(=O)c1cccc(NC(N)=NC#N)c1
134 to 136 °C | O=C1c2ccc(Cl)cc2C(=O)C(O)(O)C1(O)O
158 °C | O=c1[nH]c2ccccc2n1CCCN1CCNCC1
63 to 65 °C | CN(C)Cc1ccc([C@H]2CC[C@H](O)CC2)cc1

melting point | Structure (SMILES)
149 to 150 °C | CS(=O)(=O)c1ccc(C(CC2CCCC2)C(=O)O)cc1Br (configuration not stated)
148 to 149 °C | NCc1cccc(-n2cnc3cnc4ccc(Cl)cc4c32)c1
166 to 168 °C | O=S(=O)(c1ccccc1)N1CC2CCC(C1)O2
227 to 228 °C | Cc1c(C(=O)O)cnn1-c1nc(-c2cccc(C(F)(F)F)c2)cs1
164 to 165 °C | CCOC(=O)C(C)=CNc1ccc2ccccc2n1
134 to 138 °C | Oc1ccc(C(F)(F)C(F)(F)C(F)(F)/C=C/C(F)(F)C(F)(F)C(F)(F)c2ccc(O)cc2)cc1
102 to 103 °C | CC(C(=O)N(C)C)n1nc(-c2ccccc2)c(Cl)c1Cl (configuration not stated)
126 to 127 °C | CC(C)CC1C(=O)NCCN1Cc1ccccc1 (configuration not stated)
143 to 145 °C | COc1cc(OC)nc(Oc2cccc3c2C(=O)OC3O)n1 (configuration not stated)
105 to 107 °C | CCOC(=O)Cc1cc(Br)c(SC(=O)N(C)C)c(Br)c1
58 to 59 °C | O=C(CCO)NCc1ccc2ccn(C3CCN(CCc4ccccc4F)CC3)c2c1
139 to 142 °C | CCOc1cccc(-c2cc(F)c(NC(=O)c3ccccc3CO)c(Cl)c2)c1
210 °C | CCSc1nc(-c2ccc(O)cc2)cn1C
139 to 140 °C | CC(C)(C)c1cc(C(c2ccc(C#N)cc2)N2CCCCC2)cc(C(C)(C)C)c1O (configuration not stated)
190 to 196 °C | O=C(CN1CCC(Oc2ccccc2)CC1)Nc1ccc2[nH]c(=O)oc2c1
173 to 175 °C | NS(=O)(=O)c1ccc(-n2nc(C(F)(F)F)cc2-c2ccc(-c3cscn3)c(Cl)c2)cc1F
53.5 to 54.5 °C | CSc1cc2ccccc2cc1C=O
119 to 121 °C | O=C1NC(=O)C(CCCOc2ccc(F)cc2)S1 (configuration not stated)
170 °C | CC1(C)CC(S(=O)(=O)Cc2cc3c(cc2Cl)OCO3)=NO1
206 °C | N#Cc1cnn2c(C(F)(F)F)cc(-c3ccc(Cl)c(Cl)c3)nc12
216 to 217 °C | CCOP(=O)(/C=C/c1ccc2cc(NC(=O)c3cccnc3)cc(-c3cccc4ccccc34)c2n1)OCC
180 °C | CN(C)S(=O)(=O)c1cc(-c2csc(=Nc3ccccc3)n2C)ccc1Cl
81 to 82 °C | Nc1ccc(C2OCCO2)nc1
168 to 170 °C | CC(=O)OC(C)OC(=O)[C@H](Cc1ccc(-c2c(C)n(C)c(=O)n(C)c2=O)cc1)NC(=O)c1c(Cl)cccc1Cl (some centres not stated)
228 to 230 °C | COC(=O)c1ccc(C(=O)NS(=O)(=O)c2ccc(CCNC(=O)c3ccccc3)cc2)cn1

melting point | Structure (SMILES)
141 to 143 °C | O=S1(=O)CCc2nn(-c3ccc(Cl)cc3F)c(Cl)c2C1
91 to 93 °C | Cc1cccc(Cl)c1NS(=O)(=O)c1nc2sccn2n1
233 to 236 °C | O=c1c2c(Cc3ccccc3OC(F)(F)F)n[nH]c2c2cccnc2n1-c1cccc(OC(F)(F)F)c1
102 to 104 °C | O=Cc1cc2c(cc1O)CCO2
162 to 163 °C | CCCN1CC(c2cccc(Br)c2)=C(c2ccc(S(N)(=O)=O)cc2)C1=O
53 to 54 °C | CCNc1c(C(=O)OCC)c(C)nc2scnc12
184 to 186 °C | CN1CCN(c2cccc3c2C[C@H](NC(=O)CCc2ccccc2)CC3)CC1
228 to 230 °C | CCn1c(=O)c2c(nc(/C=C/c3cccc(OC(C)=O)c3OC(C)=O)n2C)n(CC)c1=O
198 to 200 °C | Cc1c(NC(=O)CC(C)(C)C)c(C)c2c(c1-c1ccccn1)OCC2c1ccc(C(C)C)cc1 (configuration not stated)
72 to 74 °C | CCOC(=O)C(C(=O)OCC)c1cccc2nnsc12
283 to 285 °C | NC(C(=O)O)c1ccsc1 (configuration not stated)
102 to 104 °C | Cc1ccc(-c2ccccc2C(=O)NCCC#N)cc1
114 to 115 °C | CC1CS(=O)C(c2cccs2)=NO1 (configuration not stated)
68 to 70 °C | COC(=O)C(Cl)=Cc1ccc(OC)cc1
157 to 160 °C | CCOC(=O)c1cnn(-c2cccc(N(C)C)n2)c1S(N)(=O)=O
121 to 122 °C | CC(C)c1nc(CCO)n(Cc2ccncc2)c1Sc1cc(Cl)cc(Cl)c1
207 to 209 °C | O=C1Cc2cc3c(cc2C(c2ccccc2Cl)N1)OCO3 (configuration not stated)
225 to 226 °C | Nc1nc(Cl)nc2c1ncn2C1OC(CO)C(O)C1F (configuration not stated)
185 °C | O=C(Nc1cccc(NC2=CC(=O)c3ccccc3C2=O)c1)c1ccccc1
280 to 281 °C | COC(=O)c1cc(-c2ccc3c(c2)c2cc(-c4ccc(Cl)cc4Cl)c(=O)n(C)c2n3C)on1
54 to 55 °C | CCCc1cc(Cl)cc2nc(Cc3ccc(OC)c(OC4CCCC4)c3)oc12
202 to 205 °C | O=C(NC1CCOCC1)c1ccc(-c2ccc3nnn(Cc4ccc5ncccc5c4)c3n2)cc1
138 to 139 °C | O=C(Nc1ccccc1Oc1cc(Cl)cc(Cl)c1)C1CCNCC1
250 °C | COc1ccc(CNc2nc(-c3ccc(C(=O)O)cc3)nc3sc(C(F)(F)F)cc23)cc1OC
108 to 110 °C | CCOc1ccccc1OCC1(O)CCNC1 (configuration not stated)

melting point | Structure (SMILES)
85 to 86 °C | CCOC(=O)Cc1c(C)n(Cc2cccc(OC)c2)c2ccc(OCc3csc(-c4ccccc4)n3)cc12
124 to 125 °C | CCOCCOC(=O)C(=O)Nc1nc(-c2c(C)cc(C)cc2C)cs1
73 to 75 °C | CC(=O)c1ccc(CNC(=O)OC(C)(C)C)cc1
145 to 147 °C | CS(=O)(=O)Nc1ccc(C(=O)c2ccccc2)cc1
156 to 158 °C | C=C1CN(S(=O)(=O)c2ccc(C)cc2)CCCN(Cc2ccccc2)CCCN(S(=O)(=O)c2ccc(C)cc2)C1
197 °C | O=C(CC1COC1)N[C@H]1CC[C@H](CCN2CCC(c3cccc4c3CCO4)CC2)CC1
110 to 112 °C | CNCC1Cc2cc(OC)cc(-c3ccccc3F)c2O1 (configuration not stated)
179 to 180 °C | CC(=O)N[C@@H](C)COc1ccc(-c2nc3ccc(OCC4CC4)cc3o2)nc1
141 to 142 °C | COc1ccc2[nH]c(-c3nc(C)no3)cc2c1
88 to 90 °C | CS(=O)c1ccc(Oc2ccc(Cl)c(Cl)c2)nc1 (configuration not stated)
270 °C | O=c1nc(C2CCCCC2)c2cc(Cl)ccc2[nH]1
180 to 181 °C | CC(=O)c1ccc(S(=O)(=O)NCC(F)(F)F)cc1
145 °C | O=C(c1cccnc1)c1cc(-c2cccnc2)c(N2CCOCC2)s1
245 °C | Cc1cc(Br)cc(C(=O)O)c1N
87 to 89 °C | CCOC(=O)C1=Cc2sccc2S(=O)(=O)N1C
82 to 83.5 °C | FS(F)(F)(F)(Cl)c1cccc(S(F)(F)(F)(F)Cl)c1
105 to 111 °C | CCC(O)=C1SC(=S)N(c2ccccc2)C1=O
175 °C | O=Cc1c(N2CCNCC2)n(-c2ccccc2)c2ccccc12
155 to 156 °C | Cc1ccc(CSc2nc3cc4c(cc3[nH]2)OCCO4)nc1
105 to 108 °C | COc1cccc(C2(O)CCC(=O)CC2)c1
117 to 118 °C | CCCCCCCCCCc1ccc2cc(/C=C/c3cc4ccc(CCCCCCCCCC)cc4cc3SC)c(SC)cc2c1
110 to 113 °C | CCN1C(=O)Cc2cnc(N3CCN(Cc4ccccc4)CC3)nc21

Structure (SMILES) | melting point
Cc1ncc2n1-c1ccc(Cl)cc1C(c1ccccc1F)N=C2 (configuration not stated) | 180 to 181 °C
COC(=O)c1[nH]c(C)c2c1CN=C(c1ccccc1F)c1cc(Cl)ccc1-2 | 228 to 231 °C
N#Cc1cc(F)c(-n2ncc(=O)[nH]c2=O)cc1F | > 250 °C
NS(=O)(=O)c1nc2ccc(OC(=O)Cc3ccccc3)cc2s1 | 177 to 179 °C
O=C(NC1CN2CCC1CC2)c1ccccc1Cc1ccccc1 (racemic) | 187 to 188 °C
